Laboratory results published in US5721107A, “Antibodies to G protein coupled glutamate receptors” (priority 1995, dated 1998).
Read-outs that look alike come from different tables or passages of the source.

What was measured:
[1] = test system: glutamate G protein coupled receptor; test: Voltage-clamp assay of injected oocytes, inhibition of glutamic acid-evoked current by putative antagonist; type: cell-based, rat; conditions: antagonist 1 mM
Method: Voltage clamp assays were also carried out on injected oocytes to measure the inhibition by the putative glutamate G protein coupled receptor antagonist, 2-amino-3-phosphonopropionic acid (AP3).

[2] = molecular target: T1, GluG R encoded by clone 45-A (Rattus norvegicus, UniProt P23385); type: cell-based; conditions: normalized to 100 μM L-glutamate
T1 construct: expressed in transfected cells; host or cells: Xenopus oocytes injected with in vitro transcribed RNA of clone 45-A (cDNA in pVEGT')
T1 sequence (P23385 33-1199): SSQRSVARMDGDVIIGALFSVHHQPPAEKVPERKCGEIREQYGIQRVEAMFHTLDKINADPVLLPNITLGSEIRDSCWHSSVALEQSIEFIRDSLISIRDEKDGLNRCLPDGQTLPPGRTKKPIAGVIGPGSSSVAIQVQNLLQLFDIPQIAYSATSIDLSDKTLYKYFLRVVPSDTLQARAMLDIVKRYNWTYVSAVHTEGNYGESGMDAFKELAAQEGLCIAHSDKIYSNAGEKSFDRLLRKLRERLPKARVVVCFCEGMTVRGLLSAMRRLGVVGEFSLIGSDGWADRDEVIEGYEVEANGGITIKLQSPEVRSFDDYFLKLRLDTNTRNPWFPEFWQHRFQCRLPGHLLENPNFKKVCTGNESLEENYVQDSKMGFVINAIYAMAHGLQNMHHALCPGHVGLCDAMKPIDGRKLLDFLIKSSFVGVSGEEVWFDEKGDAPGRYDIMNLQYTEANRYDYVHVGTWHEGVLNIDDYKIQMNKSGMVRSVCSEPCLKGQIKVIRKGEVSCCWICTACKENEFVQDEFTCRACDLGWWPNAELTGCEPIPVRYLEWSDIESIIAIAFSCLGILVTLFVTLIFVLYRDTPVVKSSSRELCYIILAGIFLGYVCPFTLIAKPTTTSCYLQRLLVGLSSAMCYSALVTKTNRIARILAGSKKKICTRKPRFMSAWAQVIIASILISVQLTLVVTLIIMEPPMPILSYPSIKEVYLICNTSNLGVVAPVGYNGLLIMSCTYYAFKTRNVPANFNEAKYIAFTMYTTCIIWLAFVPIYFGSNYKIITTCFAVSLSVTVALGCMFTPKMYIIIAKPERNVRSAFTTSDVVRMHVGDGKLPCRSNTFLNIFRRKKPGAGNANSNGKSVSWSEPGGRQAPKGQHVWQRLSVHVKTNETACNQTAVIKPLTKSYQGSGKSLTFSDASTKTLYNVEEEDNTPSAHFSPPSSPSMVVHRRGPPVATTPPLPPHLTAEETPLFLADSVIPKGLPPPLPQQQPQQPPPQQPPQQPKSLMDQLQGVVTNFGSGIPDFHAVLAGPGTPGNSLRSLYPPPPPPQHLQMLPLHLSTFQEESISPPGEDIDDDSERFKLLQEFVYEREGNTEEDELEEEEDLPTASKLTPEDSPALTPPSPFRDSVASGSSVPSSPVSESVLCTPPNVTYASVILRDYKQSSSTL

[3] = test system: rat G protein coupled glutamate receptor; test: Competition of tritiated glutamic acid binding to membrane preparations of transfected BHK cells; conditions: plus and minus quisqualate, 30 minutes, room temperature
Method: Transfected cell lines expressing GluG R were identified by the binding of ^3 H-glutamate to membrane preparations from transfected cells. Cell lines expressing low to moderate levels of GluG R are used to set up functional screening assays.
Clones of BHK 570 and BHK TK^- ts13 cells expressing the rat G protein coupled glutamate receptor cDNA were plated in two or three 150 mm maxi-plates culture dishes and were grown to confluency. The cells from each plate were scraped in 5 ml of PBS (phosphate buffered saline, Sigma Chemical Co., St. Louis, Mo.), which was pre-chilled to 4° C. The cells were removed to a chilled centrifuged tube, and the plates were each rinsed with 5 ml of chilled PBS and pooled with the cells. The chilled tubes were spun at 1,000 rpm for two minutes, and the supernatant was discarded. The cells were frozen at either -70° C. or on dry ice. In some cases, the cells were left overnight at -70° C. […] The filters were dried in a microwave oven and counted in a […].
Protein determinations were carried out using a Coomassie Blue-based assay from Pierce Chemical Company (Rockford, Ill.) under conditions set forth by the manufacturer. One hundred microliters of undiluted cell homogenate or BSA standard was added to 2 ml of reagent and the optical density was measured at 595 nm. […]

[4] = test system: GluG R; test: Voltage-clamp response to quisqualate of oocytes injected with RNA from a subfractionated rat cerebellum cDNA library pool; type: cell-based; conditions: RNA from subfractionated pool of 14,000 colonies; approximately 100 ng RNA per oocyte; estimated from digital panel meter
Method: Plasmid DNA from plates 25 to 32 were cesium chloride banded and transcribed into RNA as described above along with the positive parent pool Z99-25-32. Oocytes were injected with the RNA and voltage clamp assays, carried out as described above, identified pools Z104-25 and Z111-32 as being weakly positive, Z106-27 and Z109-30 as intermediately positive, and Z108-29 and Z110-31 as the most positive. The pool resulting in Z110-31 was chosen for further subdivision.
To confirm the result, plasmid DNA from clone #45 was prepared, transcribed and assayed in oocytes as described above. […] FIG. 2 illustrates the data taken from voltage-clamp recordings at several stages in the subfractionation of the cerebellum library. […] The peak current was truncated by the chart recorder, but the actual peak current (estimated from a digital panel meter) was approximately 1300 nA.

[5] = 100 μM, saturating concentration

## NC(CP(=O)(O)O)C(=O)O (racemic) [DL-AP3, 2-amino-3-phosphonopropionic acid]
[1]
  current evoked by 10 μM glutamic acid, reduced to % of the control: 59.3±7.3 % of the control

## Cc1onc(O)c1CC(N)C(=O)O (stereo not drawn) [AMPA, α-amino-3-hydroxy-5-methyl-isoxazole-4-propionic acid]
[2]; [5]
  response of oocytes to L-glutamic acid analog (effectiveness): ineffective

## NC(CCP(=O)(O)O)C(=O)O (centres unmarked) [APB, 2-amino-4-phosphonobytyric acid]
[2]; [5]
  response of oocytes to L-glutamic acid analog (effectiveness): ineffective

## CN[C@H](CC(=O)O)C(=O)O [NMDA, N-methyl-D-aspartic acid]
[2]; 100 μM NMDA+10 μM glycine
  response of oocytes to L-glutamic acid analog (effectiveness): ineffective

## N[C@@H](Cn1oc(=O)[nH]c1=O)C(=O)O [Quisqualic acid, quisqualic acid]
[3]
  competitive binding to glutamate receptor expressed by transfected BHK cells: able to competitively bind the glutamate receptor
[4]
  peak current in response to quisqualate: approximately 1300 nA

## N[C@@H](CC(=O)O)C(=O)O [aspartic acid]
[2]; 1 mM, saturating concentration
  response of oocytes to L-glutamic acid analog (effectiveness): ineffective

## C=C(C)[C@H]1CN[C@H](C(=O)O)[C@H]1CC(=O)O [kainic acid]
[2]; 1 mM, saturating concentration
  response of oocytes to L-glutamic acid analog (effectiveness): ineffective
